This note sets out measurements from US20250017973A1, “Nutritional composition for cancer” (N.V. Nutricia, priority 2022, published 2025).

The test system of this assay is mammary adenocarcinoma cells. The experiment in a line: Dark Agouti Mammary Adenocarcinoma (DAMA) tumour-bearing model: tumour growth and MTX efficacy. In kind it is in vivo, rat. The note with it: MTX treated rats. On the procedure: Tumour-bearing studies were conducted in accordance with ethical guidelines approved by the University of Adelaide Animal Ethics committee in accordance with the National Health and Medical Research Committee's Code for the care and use of animals for scientific research. All experiments were performed with N=8 rats per group.
The rats were individually-housed in conventional, open top cages under 12 h light/dark cycles with ad libitum access to autoclaved food and sterile water. Sawdust bedding was provided in all cases with enrichment (crinkle paper for tumour-naïve model or toilet rolls for tumour-bearing model). All cages were randomly arranged across racks to prevent potential bias and dampen variation.
The Dark Agouti Mammary Adenocarcinoma (DAMA) model was used to assess the effect of a composition comprising hydrolysed whey proteins and MCTs on tumor growth. Following acclimatisation (1 week with AIN93G control diet), female DA rats weighing 150-170 g were given ad libitum access to the test or control diet (table 1) for two weeks prior to methotrexate (MTX) treatment (day-14). […] Tumours were measured daily using digital calipers to determine their volume (cm^3). Tumour burden was calculated as tumour length width*depth (volume) and expressed as relative to body weight (% BW, cm^3/g). […]

Consider `CN(Cc1cnc2nc(N)nc(N)c2n1)c1ccc(C(=O)N[C@@H](CCC(=O)O)C(=O)O)cc1` [MTX, methotrexate], for which the “tumour burden at necropsy (FIG. 1B volume, FIG. 1C weight, relative to body weight)” value is reported as “significantly decreased to (near) zero”.
